Data published in patent US20100029509A1, “NOVEL METHODS” (NATURAL ENVIRONMENT RESEARCH COUNCIL, priority 2006, published 2010).

Columns and labels:
[1] = tested on: xylR/Pu regulation system (Pu promoter activity); test: Induction of Pu promoter (relative bioluminescence, luxCDABE reporter) in Acinetobacter ADP1_pu_lux_xylR; type: cell-based, Acinetobacter baylyi ADP1; settings: for Induction of Pu promoter: ADP1_pu_lux_xylR, inducer 100 μM in LB, following 30 hrs incubation; for Induction of Pu promoter activity: strain ADPWH_Pu_lux_xylR, bioluminescence from lux genes
Method: Pu promoter activity was monitored by measuring relative bioluminescence (bioluminescence divided by OD600). For each measurement, at each time point 100 μl samples were analyzed in triplicate in a well of a black, clear-bottom 96-well microplate (Fisher Scientific). At OD600 and Bioluminescence were measured using a Synergy HT Multi-Detection Microplate Reader (Bio-Tek™).
A single colony of Acinetobacter sp. ADP_pu_lux_xylR was separately inoculated into 5 ml LB medium in a 30-ml glass universal tube. Toluene, o-, m-, p-xylenes, phenol, benzene, naphthalene, 2-, 3-, or 4-hydroxybenzoic, benzoate or catechol was added into LB (100 μM) to assay induction of Pu. Samples were incubated at 20, 28, 30, 34 or 37° C. with shaking at 150 rpm. Samples were repeatedly loaded on black 96-well microplate for bioluminescence and OD600 measurement for 30 hours of incubation.

[2] = tested on: xylR/Pu regulation system (Pu promoter activity); test: as above; type: cell-based, Acinetobacter baylyi ADP1; settings: ADP1_Pu_lux_xylR on LB agar with 10 mM glucose, FIG. 1B; uninduced cells remained dark
Pu promoter activity = test: Catabolic repression of Pu activity in ADP1_pu_lux_xylR grown in minimal medium; type: cell-based, Acinetobacter baylyi ADP1
Method: Pu promoter activity was monitored by measuring relative bioluminescence (bioluminescence divided by OD600). For each measurement, at each time point 100 μl samples were analyzed in triplicate in a well of a black, clear-bottom 96-well microplate (Fisher Scientific). At OD600 and Bioluminescence were measured using a Synergy HT Multi-Detection Microplate Reader (Bio-Tek™). To examine the effect of catabolic repression Acinetobacter sp. ADP1_pu_lux_xylR was inoculated into 5 ml MM supplemented with 50 mM glucose or succinate as a sole carbon source in a 30-ml glass universal tube. […] The bacterial samples were incubated at 28° C. shaker with shaking at 150 rpm. […] For each treatment, three replicates were carried out. Samples were taken and measured for bioluminescence and OD600 every 30 min.

[3] = tested on: salA promoter operably linked to the lux genes; settings: LB + 6 μg/ml tetracycline + 2 mM salicylate, FIG. 11

Row | Compound | Induction of Pu promoter [1] | further results
1 | Oc1ccccc1O [catechol] | cannot be induced | –
2 | c1ccccc1 [benzene] | cannot be induced | –
3 | Cc1cccc(C)c1 [m-xylene] | – | Induction of Pu promoter activity [1]: can be induced
4 | xylene | – | Bioluminescence on agar medium when induced by vapors [2]: strong bioluminescence
5 | Oc1ccccc1 [phenol] | cannot be induced | –
6 | O=C(O)c1ccc(O)cc1 [4-hydroxybenzoic] | cannot be induced | –
7 | c1ccc2ccccc2c1 [naphthalene] | cannot be induced | –
8 | O=C(O)CCC(=O)O [succniate, succinate] | – | Repression of Pu activity by sole carbon source (Pu promoter activity; minimal medium with 50 mM carbon source, toluene, m-, p- or o-xylene 500 μM as inducers, 28° C., FIG. 3A): did
9 | Cc1ccccc1 [toluene] | – | Induction of Pu promoter activity [1]: can be induced
10 | 6-phosphogluconic acid trisodium salt [6-phosphogluconate, reference compound] | – | Effect on Pu activity of added candidate repression signal molecule (Pu promoter activity; added to MM-glucose at 0.1-300 μM after maximal induction by m-xylene, data not shown): did not affect Pu activity
11 | O=C(O)c1ccccc1O [salicylate] | – | Activation by salicylate, Transformant B (negative) [3]: not activated
12 | Cc1ccccc1C [o-xylene] | – | Induction of Pu promoter activity [1]: can be induced
13 | O=C(O)c1cccc(O)c1 [3-hyroxybenzoic] | cannot be induced | –
14 | O=C(O)c1ccccc1O [2-hydroxybenzoic (salicylic acid), salicylic acid] | cannot be induced | –
15 | O=C(O)c1ccccc1 [benzoate] | cannot be induced | –
16 | Cc1ccc(C)cc1 [p-xylene] | – | Induction of Pu promoter activity [1]: can be induced
